From patent US7994326B2 (Northwestern University, priority 2003, dated 2011)
Where two headings read alike, the source gives them in different places.

Columns and labels:
Type in all cases: biochemical
murine iNOS = target: T1, murine iNOS (Mus musculus, UniProt P29477); assay: NOS enzyme inhibitory assay (hemoglobin capture), iNOS; details: for IC50: murine iNOS, 10 μM L-arginine
T1 construct: made in house; host or cells: E. coli (plasmid pCWiNOS)
Excerpt: (§1) All of the NOS isoforms used were recombinant enzymes overexpressed in E. coli from different sources. Nitric oxide formation from NOS was monitored by the hemoglobin capture assay as described in the literature.
Enzyme inhibitory assay. All of the NOS isoforms used are recombinant enzymes overexpressed in E. coli from different sources.
iNOS expression: An overnight culture of pCWiNOS was used to inoculate (1:100) larger cultures of Terrific Broth media (12 g/L tryptone, 24 g/L yeast extract, 4 mL/L glycerol, 17 mM KH2PO4, and 72 mM K2HPO4) containing 50 μg/mL ampicillin and 34 μg/mL chloramphenicol at 37° C. At an OD600 of ˜0.5, the culture was cooled to 25° C. and induced by the addition of 1 mM IPTG (final concentration). After approximately 24 h of growth at 25° C., the cells were pelleted at 5300×g, transferred to 50 mL conical tubes, and stored at −80° C.
iNOS purification: Cell pellets from 1.0 L of culture were resuspended in sonication buffer (50 mM Hepes, pH 7.4, 10% glycerol, 10 μg/mL benzamidine, 5 μg/mL leupeptin, 0.2 mM of PMSF, and 1 μg/mL each of pepstatin, chymostatin, and antipain) and lysed by sonication. Centrifugation for 20 min at 13000×g yielded supernatant which contained iNOS active enzyme. iNOS supernatant was loaded onto 1 g of a 2′,5′-ADP-Sepharose 4B resin column. The column was then washed with 20 ml iNOS purification buffer (10 mM K2HPO4, 10% glycerol, 0.5 mM L-arginine, pH 7.4) and 10 μM BH4. Inducible NOS was eluted with 30 ml iNOS purification buffer supplemented with 10 mM 2′(3′)-AMP, 10 μM BH4, and 0.3 M NaCl. The eluent was concentrated to 5 ml by ultrafiltration. The above concentration operation was repeated three times more with 10 ml Hepes buffer supplemented with 10 μM BH4, to give purified inducible NOS.
(§2) Nitric oxide formation from NOS was monitored by the hemoglobin capture assay as described previously. (Hevel, J. M.; Marletta, M. A. Nitric Oxide Synthase Assays. Methods Enzymol. 1994, […], 250-258).
(§3) The selectivity of an inhibitor is defined as the ratio of the respective Ki values.

rat nNOS = target: T2, rat nNOS (Rattus norvegicus, UniProt P29476); assay: NOS enzyme inhibitory assay (hemoglobin capture), nNOS; details: for IC50: rat nNOS, 10 μM L-arginine
T2 construct: made in house; host or cells: E. coli (plasmid pCWnNOS)
Procedure: as §1
After approximately 48 h of post-induction incubation in the dark at 25° C. the cells were pelleted at 5300×g, transferred to 50 mL conical tubes, and stored at −80° C.
nNOS purification: Cell pellets from 2.0 L of culture were resuspended in sonication Buffer A (50 mM Tris Base Buffer, pH 8.0, 10% glycerol), 2 mg/ml lysozyme. 0.5 mM L-arginine. 1 mM EDTA, 0.1 mM PMSF, 1 µg/ml antipain, and 1 μM each of leupeptin, […], and […]) and lysed by sonication. Centrifugation for 1 h at 100000×g yielded supernatant which contained nNOS active enzyme. The supernatant was brought to 2 mM CaCl2 and the protein was loaded onto a 15 ml calmodulin-Sepharose column equilibrated with Buffer A containing 2 mM CaCl2. The column was washed with 100 ml Buffer B (50 mM Hepes, 5 mM DTT, and […]) containing 2 mM CaCl2, 0.5 mM L-arginine, and 10 μM BH4, and eluted with 30 ml Buffer B supplemented with 0.3 M NaCl, 5 mM EGTA, 0.5 mM L-arginine, and 10 μM BH4. The protein was then loaded onto a 5 ml 2′,5′-ADP-Sepharose column equilibrated with Buffer B supplemented with 0.3 M NaCl, 0.5 mM L-arginine, and 10 μM BH4. The column was washed with 25 ml Buffer B containing 0.5 mM L-arginine and 10 μM BH4, and then 25 ml of Buffer B only supplemented with 10 μM BH4 (without L-arginine). Neuronal NOS was eluted with 20 ml Buffer B supplemented with 10 mM 2′(3′)-AMP, 10 μM BH4 and 0.3 M NaCl. The 20 ml eluent was then concentrated to 5 ml by ultrafiltration. The above concentration operation was repeated twice more with 10 ml Buffer B supplemented with 10 µM BH4 to give the purified neuronal NOS.
Nitric oxide formation from NOS was monitored by the hemoglobin capture assay as described previously.
as §3

bovine eNOS = target: T3, bovine eNOS (Bos taurus, UniProt P29473); assay: NOS enzyme inhibitory assay (hemoglobin capture), eNOS; details: for IC50: bovine eNOS, 10 μM L-arginine, * = no inhibition observed up to the concentration listed
T3 construct: made in house; host or cells: E. coli (plasmid Bov-eNOSpCW)
Procedure: as §1
Expression of bovine eNOS: An overnight culture of Bov-eNOSpCW was used to inoculate 0.5 liter (in a 2.8-liter Fernbach flask) of modified TB (20 g of yeast extract, 10 g of bacto-tryptone, 2.65 g of KH2PO4, 4.33 g of Na2HPO4 and 4 ml of glycerol per liter) containing ampicillin ([…]) and chloramphenicol ([…]). The cultures were grown to an OD600 of z0.8 at 22° C. (200 rpm) and induced with 0.5 mM IPTG. One hour before IPTG induction, d-aminolevulinic acid (0.5 mM final) was added and, at the time of IPTG induction, riboflavin ([…]) and ATP (1 mM final) were also added. After induction, the flasks were kept in the dark at 22° C. (200 rpm). The cells were harvested 48 h after induction, and the cell pellet was frozen at −80° C. until purification was carried out.
Purification of bovine eNOS. The purification was typically carried out with eNOS from 2 liters of E. coli culture. The eNOS protein was purified using a modification of the published protocol for nNOS (14). The cells were resuspended in buffer C [50 mM Tris-Cl, pH 7.8, 1 mM EDTA, 1 mM DTT, 10% glycerol (v/v), 150 mM NaCl, 0.1 mM phenylmethylsulfonyl fluoride, […]], lysed by pulsed sonication and then centrifuged to sediment the cell debris. The supernatant was applied to a 2′,5′-ADP Sepharose 4B column equilibrated in buffer D [50 mM Tris-Cl, pH 7.8, 0.1 mM EDTA, 0.1 mM dithiothreitol, 150 mM NaCl, 10% glycerol (v/v)]. The column was washed with 20 column volumes of buffer B and again with 20 column volumes of buffer B containing 600 mM NaCl. Finally, protein was eluted with buffer B containing 600 mM NaCl and 5 mM 2′-AMP. The fractions were screened for absorption in the Soret region (A400) and hemoprotein-containing fractions were pooled and concentrated (Centriprep 50, Amicon). Repeated dilution/concentration [50 mM Tris-Cl, pH 7.8, 0.1 mM EDTA, 0.1 mM dithiothreitol, 10% glycerol (vol/vol)] was used to reach a final concentration of 150 mM NaCl and commensurately reduce the 2′-AMP content. […] The purified eNOS is stored in the presence of 1 mM L-arginine.
eNOS washing: eNOS contains a significant amount of L-arginine, which will interfere with the enzyme assay. The L-arginine can be removed by several dilution and concentration steps using an Amico concentrator. The dilution buffer is 10 ml Tris-HCl 50 mM containing 0.1 mM EDTA, 400 mM NaCl, 10% glycerol and 1 mM beta-mercaptoethanol. The above dilution and concentration operation was repeated three times to give purified eNOS.
as §2, §3

[1] = Table 1a, apparent Ki calculated from IC50, Km […], read-out: calc. Ki iNOS
[2] = Table 1a, apparent Ki calculated from IC50, Km […], read-out: calc. Ki nNOS
[3] = Table 1a, apparent Ki calculated from IC50, Km 1.7 μM, read-out: calc. Ki eNOS
[4] = Table 1b, ratio of Ki values eNOS/nNOS
[5] = Table 1b, ratio of Ki values iNOS/nNOS

| Structure (SMILES) | Ki (murine iNOS; [1]) [µM] | IC50 (murine iNOS; Table 1a) [µM] | Selectivity n/e (rat nNOS; Table 1a, Ki(eNOS)/Ki(nNOS)) | Selectivity n/i (rat nNOS; Table 1a, Ki(iNOS)/Ki(nNOS)) | Ki (rat nNOS; [2]) [µM] | IC50 (rat nNOS; Table 1a) [µM] | Ki (bovine eNOS; [3]) [µM] | IC50 (bovine eNOS; Table 1a) [µM] | Ki (murine iNOS; Table 1b, read-out: Ki iNOS) [µM] | Selectivity n/e (rat nNOS; [4]) | Selectivity n/i (rat nNOS; [5]) | Ki (rat nNOS; Table 1b, read-out: Ki nNOS) [µM] | Ki (bovine eNOS; Table 1b, read-out: Ki eNOS) [µM] |
| --- | --- | --- | --- | --- | --- | --- | --- | --- | --- | --- | --- | --- | --- |
| Nc1cccc(CC2CNCC2NC2CCNC2)n1 (racemic) [Compound P-19] | 253 | 559 | 22.00 | 12.11 | 20.9 | 182 | 460 | 3170 | – | – | – | – | – |
| Nc1cccc(CC2CNCC2NC2CCNC2)n1 (racemic) [Compound P-20] | 234 | 516 | 48.67 | 18.21 | 12.8 | 112 | 625 | 4300 | – | – | – | – | – |
| Cc1cc(N)nc(C[C@H]2CNC[C@H]2OCCNC(=O)Cc2cccc(F)c2)c1.Cl.Cl (racemic) [Compound P-80, (±)-N-{2-{cis-4-[(6-amino-4-methylpyridin-2-yl)methyl]pyrrolidin-3-yloxy}ethyl}-2-(3-fluorophenyl)acetamide dihydrochloride] | – | – | – | – | – | – | – | – | 19 | 17 | 3.8 | 5 | 85 |
| Cl.Cl.Cl.Nc1cccc(C[C@H]2CNC[C@H]2NCCCc2ccccc2)n1 (racemic) [Compound P-27] | 166 | 366 | 27.9 | 52.43 | 3.17 | 27.5 | 88.5 | 609 | – | – | – | – | – |
| Cc1cc(N)nc(CC2CNCC2N(C)CCN(C)CCc2cccc(F)c2)c1.Cl.Cl.Cl.Cl (racemic) [Compound P-74] | – | – | – | – | – | – | – | – | 56.6 | 40.27 | 46.7 | 1.21 | 48.9 |
| Cc1cc(N)nc(C[C@H]2CNC[C@H]2NCCN)c1.Cl.Cl.Cl.Cl (racemic) [Compound P-46] | 5.5 | 12.1 | 2462.2 | 58 | 0.095 | 0.83 | 234 | 1610 | – | – | – | – | – |
| Cc1cc(N)nc(C[C@@H]2CNC[C@@H]2NCCOCCc2cccc(F)c2)c1 (racemic) [Compound P-78, cis-6-{{(±)-4-[2-(3-fluorophenethoxy)ethylamino]pyrrolidin-3-yl}methyl}-4-methylpyridin-2-amine] | – | – | – | – | – | – | – | – | 1.4 | 50 | 3.5 | 0.4 | 20 |
| Nc1cccc(CC2CNCC2NC2CCN(Cc3ccccc3)C2)n1 (stereo not shown) [Compound P-36] | 222 | 489 | 32.20 | 66.39 | 3.34 | 29 | 108 | 740 | – | – | – | – | – |
| Cc1cc(N)nc(C[C@H]2CNC[C@H]2NCCNCc2ccc(C(F)(F)F)cc2)c1.Cl.Cl.Cl.Cl (racemic) [Compound P-50] | – | – | – | – | – | – | – | – | 14.1 | 428.4 | 71.5 | 0.197 | 84.4 |
| Nc1cccc(CC2CNCC2NC2CCN(Cc3ccccc3)C2)n1 (stereo not shown) [Compound P-39] | 325 | 716 | 4.10 | 14.38 | 22.6 | 196 | 92.8 | 638 | – | – | – | – | – |
| CN(C)CCNC1CNCC1Cc1cccc(N)n1 (racemic) [Compound P-15] | 308 | 679 | 15.41 | 19.65 | 15.7 | 136 | 242 | 1660 | – | – | – | – | – |
